{"source": "patent US7141585B2", "about": "(dated 2006)"}
{"smiles": "CCOC(=O)c1c(Cc2cc(Cl)cc(Cl)c2)c(C)nn1CCO", "values": [{"measurement": "melting point", "result": "105.8 to 107.5", "unit": "°C"}]}
